# Assay results: patent publication US20110044936A1, “Composition for Attracting Bed Bugs” (priority 2009, published 2011)
# What was measured:
# Assay type in all cases: in vivo
# [1] = system: bed bugs (Cimex lectularius); assay: Bed bug aggregation (attraction) assay, Petri dish arena with treated and control filter paper tents (Example 1); details: 5 microliters, one hour, five bed bugs, average of two tests
# Description: Attraction Assays: Assay arenas were made from 150×15 mm plastic Petri dishes (VWR#25384-326) containing a 125 mm piece off qualitative filter paper (VWR#28320-100) glued to the bottom using 3M Super 77® multipurpose spray adhesive. A 80 mm hole was cut into the lid and a 500 um mesh Nytex® screen (Bioquip, #7293B) was glued to cover the opening using quick epoxy. Fresh bottom dishes were used in each assay. For these experiments 2.4 cm filter paper folded to create a tent were treated with either a control treatment (10 microliters of silicone oil for aldehyde controls and 5 microliters of deionized water for acid controls) or 10 microliters of the experimental test treatment diluted in silicone oil (aldehydes) or 5 microliters of the experimental chemical diluted in deionized water (acids). Ten bed bugs per test were released into the assay arena for the aldehyde test treatments and controls, five bed bugs per test were released into the assay arena for the acid test treatments. Day cycling bed bugs (Cimex lectularius), 12 hour light: 12 hour dark (7 AM On: 7 PM Off) light cycle, were incubated and evaluated under normal room lighting conditions at room temperature. Readings were taken at 1 hour intervals from the release of bed bugs for 4 hours for aldehydes and one hour for acids, due to the quick volatility of the acids. The number of bed bugs under the control filter paper disk and the number of bed bugs under the test treatment filter paper disk were recorded. The test treatment was considered to be an attractant if the number of bed bugs under the experimental filter disk was greater than the number under the control filter disk. Table 1 below summarizes the experimental data, the experimental test treatments considered as attractants are in bold.
# [2] = system: bed bugs (Cimex lectularius); assay: Bed bug aggregation assay, mixtures of Hexenal, Octenal and butyric acid (Example 3); details: for Number of bed bugs under experimental (Exp) disk: H/O 75/25 120 ppm in silicone oil, BA about 100 ppm in deionized water, 5 microliters each, ten bed bugs, average of two tests
# Description: Attraction Assays: […] For this test, a mixture of Hexenal and Octenal (75:25 ratio) was diluted in silicone oil to provide about a 120 ppm solution. […] Readings were taken hourly for four hours from the release of bed bugs in the assay arena. The number of bed bugs under the control disk and the number of bed bugs under the experimental disk were recorded. The test chemical was considered to be an attractant if the number of bed bugs under the experimental filter disk was greater than the number under the control disk. Table 3 below summarizes the experimental data, the experimental test treatment considered as attractants are in bold.
# [3] = system: bed bugs (Cimex lectularius); assay: Test arena gas assay, compounds dissolved in nonane (Example 5)
# Source text: A test arena was constructed from a 60×40×22 cm (L:W:H) polystyrene container. A 60×40 cm piece of filter paper was glued on the bottom to provide a walking surface for the bed bugs. At one end of the test arena, a triangular piece of plastic (16 cm high×25 cm long) was glued to the middle of the side and bottom of the container to create test zones of equal area on either side of the partition. On each side of this partition a piece of Tygon® tubing was inserted through a hole 7 cm above the bottom of each test zone to deliver a control gas to one side of the partition (control zone) and the experimental gas to the other side of the partition (experimental zone). The tubing was positioned to deliver the gases downward into the test zones with each outlet 6 cm above the filter paper glued to the bottom of the container. At the other end of the test arena, a 4 W night light was placed 35 cm above the bottom of the arena and regulated to a 12 hour light:12 hour dark (7 AM On: 7 PM Off) light cycle. Also placed adjacent to the night light was a small fan (Boston, cat#EHSDF) to create a gentle removal of gases from the distal part of the arena. Air released by the experimental and control gases was contained within their partitions and were gently drawn away from the respective air inputs, mixed within the arena and removed by the fan. This created a laminar flow where the bed bugs had opportunity to select either the experimental or control gas. Fifty bed bugs (Cimex lectularius) were entrapped within an inverted 90 mm Petri dish at a position furthest from the control and experimental zones until bed bugs were quiescent. Removal of the Petri dish started the experiment and readings were taken every hour for two hours. Data collected were number of bed bugs in the experimental, control and free arena zones. In addition, gas temperature, relative humidity, air flow rate, and percent CO2 data were collected. The experimental gas was considered to be an attractant if more bed bugs were in the experimental zone than in the control zone.
# Determination of Bed Bug Aggregation Effect Using Hexenal, Butyric Acid, trans-2-Hexen-1-al Diethylacetal, Trimethylsilyl Butyrate or Methyl Butyrate Dissolved in an Alkane Solvent Using the test arena and methods described in Example 4, test treatments containing about 300 ppm of a pro-aldehyde compound, trans-2-hexen-1-al diethylacetal, dissolved in nonane, about 300 ppm of Hexenal dissolved in nonane, about 200 ppm of butyric acid dissolved in nonane and about 200 ppm of a pro-organic acid compound, trimethylsilyl butyrate or methyl butyrate, dissolved in nonane were prepared. Separate 100 micro liter pipettes (Drummond Wiretrol 100 μL) were filled with the test solutions. One end of each micro liter pipette was sealed with parafilm leaving one end of each open. […] An air tight lid was placed onto the plastic container and the container was installed in-line after humidity and temperature conditioning of the gas and before the gas entered the arena. The micro liter pipettes were weighed before and after use to determine the amount of the test compounds released. The control gas used for these experiments consisted of house compressed air.
# [4] = system: bed bugs (Cimex lectularius); assay: Test arena assay with experimental gas and control gas zones (Example 4); details: after two hour exposure; fifty bed bugs; Hexenal/Octenal 75/25 at 73 nanograms/hour, butyric acid 3.097 micrograms/hour @ 100 mL/min air flow; CO2 50%; test gas 23-26 °C; control gas compressed air
# Source text: A test arena was constructed from a 60×40×22 cm (L:W:H) polystyrene container. […] At one end of the test arena, a triangular piece of plastic (16 cm high×25 cm long) was glued to the middle of the side and bottom of the container to create test zones of equal area on either side of the partition. On each side of this partition a piece of Tygon® tubing was inserted through a hole 7 cm above the bottom of each test zone to deliver a control gas to one side of the partition (control zone) and the experimental gas to the other side of the partition (experimental zone). The tubing was positioned to deliver the gases downward into the test zones with each outlet 6 cm above the filter paper glued to the bottom of the container. […] Removal of the Petri dish started the experiment and readings were taken every hour for two hours. […] Air temperature was monitored with a high/low thermometer. […] Relative humidity was monitored using a high/low hygrometer placed in-line immediately before the gas entered the arena. […] The relationship between valve settings and air flow was determined and using this information, valve settings were determined that could deliver blended gases (air and CO2) at a flow rate of about 100 or about 200 ml/min. […]
Compound,Number of bed bugs under experimental (Exp) filter paper disk ([1]; organic acid 10 ppm in deionized water),Number of bed bugs under experimental (Exp) filter paper disk ([1]; organic acid 50 ppm in deionized water),Number of bed bugs under experimental (Exp) filter paper disk ([1]; organic acid 100 ppm in deionized water),Number of bed bugs under experimental (Exp) filter paper disk ([1]; organic acid 1000 ppm in deionized water),Number of bed bugs under experimental (Exp) filter paper disk ([1]; organic acid 10000 ppm in deionized water),Number of bed bugs under experimental (Exp) disk ([2]; 1 Hour),Number of bed bugs under experimental (Exp) disk ([2]; 2 Hour),Number of bed bugs under experimental (Exp) disk ([2]; 3 Hour),Number of bed bugs under experimental (Exp) disk ([2]; 4 Hours),"Attraction of bed bugs to experimental filter disks ([2]; H/O 75:25 120 ppm, butyric acid 100 ppm)","% Bed bugs in Experimental Zone ([3]; after two hour exposure, released from nonane solution at 150.0-184.8 nanograms/hour @ 100 mL/min air flow, test gas 21-22 °C, control gas compressed air)","Attraction of bed bugs to gaseous mixture ([3]; test arena, two hour exposure, versus control gas)",% Bed bugs in Experimental Zone [4]
"CCCC(=O)O [Butyric acid, butyric acid]",4,2,4,4,4,4.5,5.5,4.5,5,attracted,34.0%,attracted,–
"O=C=O [CO2, carbon dioxide]",–,–,–,–,–,–,–,–,–,–,–,–,76.0%
